“And” between values parts separate entries of the source, which are not always exact repeats. Equal values may be shown once. “Also recorded” adds a separate entry of the source. Read-outs that look alike come from different tables or passages of the source.
Columns and labels:
[1] = target: T1, PlecN-PH (N-terminal PH domain of pleckstrin) (Homo sapiens, UniProt P08567); assay: Gel filtration of 3H-labeled IP3 with PH domain; assay type: binding; conditions: PH domain 10 μM, IP3 20 μM
T1 construct: residues 1-110 of pleckstrin (PlecN-PH); initiator methionine (N); made in house; host or cells: Escherichia coli (pET11a, T7 system)
T1 sequence (P08567 1-110): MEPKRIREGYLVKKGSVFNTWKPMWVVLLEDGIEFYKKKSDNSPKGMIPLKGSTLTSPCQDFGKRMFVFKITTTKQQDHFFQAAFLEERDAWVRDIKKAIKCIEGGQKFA
Protocol: (§1) For gel-filtration studies, PH domain at 10 μM was mixed with 20 μM IP3, containing 100 nCi of the appropriate ^3H-labeled isomer. A 200 μl sample was applied to a BioRad BiogelP6 desalting column, and 40 fractions of 300 μl were collected. A Bio-Rad protein assay was performed on […] of each fraction to determine the elution position of the protein, and scintillation counting of the remainder was used to detect the elution positions of IP3. Experiments were performed in either 50 mM MOPS, 100 mM NaCl, pH 6.8, or 100 mM NH4OAc, pH 6.8.

PLCδ-PH [2] = target: T2, PLCδ-PH (Rattus norvegicus, UniProt P10688); assay: Gel filtration of 3H-labeled IP3 with PH domain; assay type: binding; conditions: PH domain 10 μM, IP3 20 μM
T2 construct: initiator methionine (N); made in house; host or cells: Escherichia coli (pET11a, T7 system)
T2 sequence (P10688 20-136): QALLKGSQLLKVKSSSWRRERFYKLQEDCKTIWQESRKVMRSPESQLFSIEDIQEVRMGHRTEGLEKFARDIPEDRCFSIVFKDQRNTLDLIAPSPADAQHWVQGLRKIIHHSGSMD
Protocol: as §1

[3] = target: T3, Dyn-PH (PH domain of dynamin) (Homo sapiens, UniProt Q05193); assay: Gel filtration of 3H-labeled IP3 with PH domain; assay type: binding; conditions: PH domain 10 μM, IP3 20 μM
T3 construct: The PH domains from PLC-δ1, and dynamin, as well as the N-terminal PH domain of pleckstrin; made in house; host or cells: Escherichia coli (T7 system)
T3 sequence (Q05193 519-625 limits assumed): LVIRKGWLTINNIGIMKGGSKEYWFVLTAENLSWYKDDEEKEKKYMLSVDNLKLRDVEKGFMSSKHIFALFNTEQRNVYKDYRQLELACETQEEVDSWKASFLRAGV
Protocol: as §1

PLCδ-PH [4] = target: T2, PLCδ-PH; assay: Spin-column competition assay for 3H-I(145)P3 binding to PLCδ-PH; conditions: for competition for I(145)P3 binding by lipid vesicles: lipid at 5% in DMPC vesicles or pure DMPC, assuming 50% of lipid on the surface
Protocol: A spin-column based competition assay was employed to determine relative affinities of other inositol polyphosphates for PLCδ-PH. […] The sample (40 μl) was then applied to a Biogel P6 gel filtration spin-column. […] Each curve represents the mean of two or more experiments.
The sample was then applied to a pre-spun 1 ml spin-column containing Biogel P6 desalting medium. The spin-column was then centrifuged for 4 minutes at 900 g. Essentially all of the protein was determined to pass through the column under these conditions, and no significant counts were seen to pass through the column in the absence of protein. After spinning, all of the material that passed through the column was added to scintillation fluid for counting. Counts were normalized to those obtained in the absence of competitor, and plotted as fraction of maximal binding. […]
Values for which a precise number is given represent the mean of at least two experiments.

[5] = target: T4, PLCδ-PH (PH domain of rat PLC-δ1) (Rattus norvegicus, UniProt P10688); assay: Isothermal titration calorimetry of inositol polyphosphate / PIP2 vesicle binding to PLCδ-PH
T4 construct: initiator methionine (N); made in house; host or cells: Escherichia coli (pET11a, T7 system)
T4 sequence (P10688 20-136): T2 sequence (P10688 20-136)
Protocol: The resulting titration curve was fit using Omega software (Wiseman et al., 1989).
All experiments utilized the OMEGA instrument from MicroCal (Wiseman, T. et al., Anal. Biochem. 179, 131-137, 1989), in the laboratory of Prof. Julian Sturtevant at Yale. Titrations were performed at 25° C. in 50 mM MOPS, 100 mM NaCl, pH 6.8 or 100 mM NH4OAc at pH 6.8. […] For each titration, PH domain solution was dialyzed exhaustively against the buffer used for dilution of highly concentrated stocks of ligand. Heats for dilution of the ligand solutions were determined in separate titrations of ligand into buffer solution present in the cell.
Higher concentrations were employed for weaker binding events. […] Stoichiometry, binding constant (Kβ) and ΔH were all allowed to float in the fitting procedure.
A titration curve such as that to an equation describing a simple-binding reaction (Wiseman, T. et al., Anal. Biochem. 179, 131-137, 1989). From this fit, values for the binding constant, stoichiometry and ΔH for the binding reaction are ascertained. […] Ferris, C. D. et al, Nature, 342, 87-89, 1989.

[6] = tested on: any PH domain (PLCδ-PH, Dyn-PH, PlecN-PH); assay: Centrifugation-based assay of PH domain binding to lipid vesicles; conditions: lipid at 5% in DMPC vesicles
Protocol: Attempts to detect PH domain association with lipid vesicles were performed exactly as described by Harlan, J. E. et al., Nature 371, 168-170, 1994. In addition to using the BCA protein assay reagent, for which lipid blanks were rather high compared with the values expected for the protein concentrations employed, we also measured OD278 of the supernatants after addition of SDS in order to detect removal of protein upon pelleting vesicles. […] Initially, we performed a centrifugation-based assay, using the conditions described by Harlan, J. E. et al., Nature 371, 168-170, 1994. […] Similarly, we were unable to detect association of any of the PH domains with the same vesicles by using size-exclusion chromatography to separate protein and lipid. Any complexes between the PH domains and these vesicles therefore form with low affinity and/or have fast dissociation kinetics, such that they dissociate in the separation methods employed.

[7] = ratio of molar excess for 50% competition to that of unlabeled I(145)P3, multiplied by 0.2 μM, read-out: KD (μM) by competition assay
[8] = from concentrations required to reduce 3H-I(145)P3 binding by 50%, read-out: KD from competition assay

O=P(O)(O)OC1C(O)C(O)C(OP(=O)(O)O)C(OP(=O)(O)O)C1O (single isomer, unassigned) [D-I(134)P3] was tested, and the “binding detected by gel filtration” value [1] was “neither Dyn-PH nor PlecN-PH was seen to bind; also recorded: Neither PlecN-PH nor Dyn-PH showed evidence of binding”, the “binding detected by gel filtration” value (PLCδ-PH [2]) was “no binding” and the “binding detected by gel filtration” value [3] was “neither Dyn-PH nor PlecN-PH was seen to bind; also recorded: Neither PlecN-PH nor Dyn-PH showed evidence of binding”. The Kd (PLCδ-PH [4]; [7]) was greater than 12 µM.

With O=P(O)(O)OC1C(O)C(O)C(OP(=O)(O)O)C(OP(=O)(O)O)C1O (single isomer, unassigned) [D-I(245)P3] the Kd (PLCδ-PH [4]; [8]) was 7.5 µM and the Kd (PLCδ-PH [4]; [7]) was 4.7 µM.

O=P(O)(O)O[C@H]1[C@H](O)[C@@H](O)[C@H](OP(=O)(O)O)[C@@H](O)[C@H]1O [D-I(14)P2] showed a Kd (PLCδ-PH [4]; [8]) greater than 50 µM and a Kd (PLCδ-PH [4]; [7]) greater than 12 µM.

O=P(O)(O)O[C@@H]1C(O)[C@@H](OP(=O)(O)O)[C@@H](O)C(O)[C@H]1O (stereo partly drawn) [D-I(24)P2] was tested, and the Kd (PLCδ-PH [4]; [7]) was greater than 12 µM.

O=P(O)(O)O[C@@H]1[C@@H](O)[C@H](O)[C@H](O)[C@H](O)[C@H]1OP(=O)(O)O [D-I(45)P2] was tested, and the Kd (PLCδ-PH [4]; [8]) was greater than 50 µM and the Kd (PLCδ-PH [4]; [7]) was greater than 12 µM.

O=P(O)(O)O[C@H]1[C@H](OP(=O)(O)O)[C@@H](OP(=O)(O)O)[C@H](O)[C@@H](O)[C@H]1OP(=O)(O)O [D-I(1256)P4] showed a Kd (PLCδ-PH [4]; [7]) of 12 µM.

O=P(O)(O)O[C@H]1[C@H](O)[C@@H](OP(=O)(O)O)[C@H](OP(=O)(O)O)[C@@H](OP(=O)(O)O)[C@H]1O [D-I(1345)P4] was tested, and the Kd (PLCδ-PH [4]; [7]) was greater than 2 µM.

Molecule O=P(O)(O)O[C@@H]1[C@@H](O)[C@H](OP(=O)(O)O)[C@@H](OP(=O)(O)O)[C@@H](O)[C@H]1OP(=O)(O)O [D-I(1346)P4] has a Kd (PLCδ-PH [4]; [7]) of 5.3 µM.

Molecule O=P(O)(O)O[C@H]1[C@H](OP(=O)(O)O)[C@@H](OP(=O)(O)O)[C@@H](O)[C@@H](O)[C@@H]1OP(=O)(O)O [D-I(3456)P4] has a Kd (PLCδ-PH [4]; [7]) of 3.2 µM.

With CCCCCCCCCCCCCC(=O)OC[C@H](COP(=O)([O-])OCC[N+](C)(C)C)OC(=O)CCCCCCCCCCCCC [DMPC, dimyristoylphosphatidylcholine] the “competition for I(145)P3 binding by lipid vesicles” value (“competition for I(145)P3 binding” below) (PLCδ-PH [4]) was “did not compete” and the “competition for I(145)P3 binding” value (PLCδ-PH [4]; listed as PC) was “no detectable competition”.

In the case of O=P(O)(OCC(O)CO)OC1C(O)C(O)C(O)C(O)C1O (centres unmarked) [GPI, 1-(a-glycerophosphoryl)-inositol], the Kd (PLCδ-PH [4]; [7]) is reported as greater than 60 µM.

With O=P(O)(O)O[C@@H]1[C@@H](O)[C@@H](O)[C@@H](OP(=O)(O)OC[C@H](O)CO)[C@H](O)[C@H]1OP(=O)(O)O [GPIP2, 1-(a-glycerophosphoryl)-D-inositol-4,5-bisphosphate] the Kd (PLCδ-PH [4]; PIP2: 5% in DMPC vesicles, assuming 50% available, read-out: KD from competition assay) was 0.4 µM, the Kd (PLCδ-PH [4]; [7]) was 0.45 µM and the “binding weaker than I(145)P3” value (PLCδ-PH [4]; relative to I(145)P3 binding to PLCδ-PH) was “two-fold”. For the same molecule, the Kd ([5]; ITC, read-out: KD (dissociation constant)) was 400 nM, the “binding affinity in words” value ([5]; PIP2 in vesicles) was “submicromolar affinities” and the ΔG ([5]; individual titrations, 25° C) was -8.86 kcal/M and -8.72 kcal/M. The ΔH ([5]; individual titrations, 25° C) was -13.5 ± 0.1 kcal/M and -13.2 ± 0.1 kcal/M, the ΔS ([5]; individual titrations, 25° C) was −15.6 cal · M^−1 · K^−1 and −15.2 cal · M^−1 · K^−1 and the Stoichiometry n ([5]; individual titrations, 25° C, pH 6.8, quoted for IPn as the ligand, PIP2 in vesicles assuming 50% available) was 1.08 ± 0.01 and 1.14 ± 0.01. The Kd ([5]; individual titrations, 25° C, pH 6.8, read-out: KD) was 320 nM and 400 nM, the Stoichiometry n ([5]; mean of the titrations) was 1.11 ± 0.04 and the ΔG ([5]; mean of the titrations) was -8.79 ± 0.10 kcal/M. It also gave a ΔH ([5]; mean of the titrations) of -13.4 ± 0.2 kcal/M, a ΔS ([5]; mean of the titrations) of −15.4 ± 0.3 cal · M^−1 · K^−1 and a Kd ([5]; mean of the titrations, read-out: KD) of 360 ± 60 nM.

With O=S(=O)(O)OC1C(OS(=O)(=O)O)C(OS(=O)(=O)O)C(OS(=O)(=O)O)C(OS(=O)(=O)O)C1OS(=O)(=O)O (centres unmarked) [I(SO4)6, inositol hexasulfate] the Kd (PLCδ-PH [4]; [7]) was greater than 60 µM.

Molecule O=P(O)(O)OC1[C@@H](O)[C@H](O)C(O)[C@H](O)[C@H]1O (some centres unmarked) [I-2-P, inositol-2-phosphate] has a Kd (PLCδ-PH [4]; [7]) greater than 60 µM.

In the case of O=P(O)(O)O[C@@H]1[C@@H](O)[C@H](OP(=O)(O)O)[C@@H](OP(=O)(O)O)[C@H](O)[C@@H]1O [L-I(145)P3], the Kd (PLCδ-PH [4]; [8]) is reported as 13 µM and the Kd (PLCδ-PH [4]; [7]) is reported as 8.1 µM.

phosphatidylinositol [PI] was tested, and the “competition for I(145)P3 binding” value (PLCδ-PH [4]) was “no detectable competition; also recorded: did not compete” and the binding to vesicles [6] was “no binding”.

With phosphatidylserine [PS] the “competition for I(145)P3 binding” value (PLCδ-PH [4]) was “no detectable competition; also recorded: did not compete” and the binding to vesicles [6] was “no binding”.

Source: patent publication US7314620B2, “Methods for diagnosis and treatment of PH domain signal transduction disorders” (New York University, priority 1995, dated 2008)
